# Assay results from the METLIN SMRT retention time set (Domingo-Almenara et al. 2019).
# Assay: gradient 5% acetonitrile 3 min, to 50% in 2 min, to 85% in 15 min, held 3 min, 100 µL/min
# Conditions: column: Zorbax Extend-C18 2.1 x 50 mm; eluents: water / acetonitrile, 0.1% formic acid
# How it was run: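 The mobile phases were water and acetonitrile, each with 0.1% formic acid, pumped at 100 μL/min through a Zorbax Extend-C18 column (2.1 × 50 mm, 1.8 μm). Pure standards were injected as mixtures of ~100 molecules and detected by a quadrupole time-of-flight mass spectrometer in positive and negative ionization mode. Retention time came from computationally picked adduct peaks, each inspected by hand.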
row,RP-LC retention time [s],Compound
1,622,Cc1cc(N2CCCC2)n2nc(CN3CCN(c4ccccc4F)CC3)nc2n1
2,577,Cc1ccc2cc(CCC(=O)NCCCN(C)C)c(=O)[nH]c2c1
3,822,CCNC(=O)N1CCc2c([nH]c3ccc(Cl)cc23)C12C(=O)N(C)c1ccccc12 (centres undefined)
4,1020,CCC(C)(C)NC(=O)c1cc2c(s1)N(CCOC)CCCC2
5,598,Cc1noc(C)c1CN1CCN(C(=O)NCc2ccc(F)cc2)CC1
6,941,COc1ccccc1-c1noc(C2CCCN2C(=O)Nc2cccc(Cl)c2)n1 (centres undefined)
7,799,CCn1cc(S(=O)(=O)Nc2ccc(C)c(F)c2)c2cccnc21
8,683,Cc1ccc(CNC(=O)c2c(C)sc3ccn(CC(C)C)c(=O)c23)o1
9,684,CCOC(=O)c1cnc2nc(C)ccc2c1Nc1ccc(F)c(C#N)c1
10,808,Cc1nnc(-c2ccc3ccn(CC(=O)Nc4cccc(F)c4)c3c2)o1
11,826,COC(=O)c1ccc(-c2nc3cnccn3c2Nc2ccc(OC)cc2)cc1
12,937,CC1CCN(C(=O)CN2C(=O)C3CCCCN3c3ccc(S(=O)(=O)N4CCCC4)cc32)CC1 (centres undefined)
13,690,O=C(NCc1cccc(Cl)c1)C1CCN(c2cnc(N3CCCC3)nc2)CC1
14,815,O=C(Cn1cccc(-c2nc(-c3ccccc3)no2)c1=O)Nc1ccc2c(c1)OCO2
15,1180,CC1Oc2ccccc2N(Cc2nc(-c3ccc(Br)cc3)no2)C1=O (centres undefined)
16,806,O=C(Cc1csc(SCC(=O)c2cccs2)n1)NCCc1c[nH]c2ccccc12
17,651,c1cc(-c2noc(C3CCOC3)n2)cc(N2CCOCC2)n1 (centres undefined)
18,952,COc1ccc(OC)c(S(=O)(=O)N2CCCC(C(=O)Nc3cccc(C)c3)C2)c1 (centres undefined)
19,832,CN(C)C(=O)COc1cc(O)c2c(=O)cc(-c3ccccc3)oc2c1

row,RP-LC retention time [s],Compound
1,693,c1ccc(COCCc2noc(C3CN(Cc4ccccc4)C3)n2)cc1
2,1210,CCCOc1nc2ccccc2nc1N1CCCC(C(=O)Nc2ccc(Cl)cc2)C1 (centres undefined)
3,1040,Brc1ccc(OCc2nn3c(C4COc5ccccc5O4)nnc3s2)cc1 (centres undefined)
4,676,O=C(c1cc(-c2ccccc2Cl)nc2ccccc12)N1CCN(c2ccccn2)CC1
5,677,CCC(=O)Nc1c(C)noc1/C=C/c1ccc(S(=O)(=O)N2CCN(c3ccccn3)CC2)s1
6,882,COc1ccc(C2C(=O)N(C3CCCCC3)CC(=O)N2Cc2cccs2)cc1OC (centres undefined)
7,760,Cc1ccc(Cn2c(=O)n(CCNC(=O)c3ccco3)c3ncccc32)cc1
8,637,O=C(c1cn2ccnc(-c3ccccc3)c2n1)N1CCN(C2CCCCC2)CC1
9,651,Cc1ccc(-n2ncc3c(N4CCN(CCO)CC4)ncnc32)cc1Cl
10,895,CCc1ccc(-c2cn3ccn(-c4cccc(F)c4)c(=O)c3n2)cc1
11,804,COCCNC(=O)C1CCN(C(=O)c2cc3oc(C)cc3n2Cc2c(F)cccc2Cl)CC1
12,818,CN1c2ccc(Cl)cc2C(=O)NC12CCN(C(=O)NC1CCCCC1)CC2
13,1070,Cc1ccc(Cn2cc(-c3noc(C4CCCC4)n3)nn2)cc1
14,957,O=C(Nc1ccccc1)c1cc(C2CC2)n2nccc2n1
15,834,CC(C)NC(=O)c1nc(-c2cn(-c3cccc(F)c3)nn2)no1
16,1080,COC(=O)c1ccc(OC)c(Cn2cnc3c(-c4cccc(F)c4)csc3c2=O)c1
17,1280,Cc1nc2c(sc3nc(-c4ccccc4)ccc32)c(=O)n1CC(=O)Nc1ccc(C(F)(F)F)cc1
18,677,O=S(=O)(NCc1ccc2c(c1)OCO2)N1CCOCC1
19,1040,COc1ccc(NC(=O)Cn2cccc2-c2nc(-c3ccc4c(c3)OCO4)no2)c(OC)c1

# Continued, compound first:
row,Compound,RP-LC retention time [s]
1,CC(C)c1cc(C(C)C)n2nc(N)nc2n1,734
2,CNC(=O)c1cn(-c2ccc(SCC(=O)NCc3ccc4c(c3)OCO4)nn2)cn1,642
3,COc1cc(C(=O)Nc2nc3ccc4nc(SC)sc4c3s2)cc(OC)c1OC,1080
4,CCc1ccc(Oc2cc(N3CCC(C(=O)NCc4ccc(C)cc4)CC3)ncn2)cc1,1050
5,CCn1cc(CC(=O)NC2CCCCCC2)c2cccnc21,768
6,CC(C)c1ccc(-n2nc(N3CCN(C(=O)Cc4cccs4)CC3)ccc2=O)cc1,898
7,COc1ccc2c(c1)-c1nc(NC(=O)c3ccc(Br)cc3)sc1CC2,1250
8,COc1cc(NC(=O)N2CCC(N3CCN(Cc4ccc(F)cc4)C(=O)C3=O)CC2)cc(OC)c1,724
9,Cc1ccc(S(=O)(=O)C2=C(O)C(=O)N(Cc3ccco3)C2c2ccc(F)cc2)cc1 (centres undefined),931
10,Cc1ccc(-c2csc3c(=O)n(Cc4ccccn4)cnc23)cc1,889
11,Cc1cc2[nH]c(C(=O)Nc3ccccc3Br)c(CN3CCOCC3)c2s1,708
12,O=C(Cc1cc(-c2ccc3c(c2)OCO3)on1)NCc1cccnc1,573
13,COCC(=O)Nc1nc(-c2ccc3c(c2)NC(=O)C(C)O3)cs1 (centres undefined),691
14,COC1CCC12CCN(S(=O)(=O)c1ccc(C)cc1)CC2 (centres undefined),1020
15,CC(C)CC(=O)N1CCc2cc(CNC(=O)c3ccnn3C)ccc21,754
16,Cc1cccc(-c2nc(-c3ccc4c(c3)oc(=O)n4C(C)C)no2)c1,1250
17,Cc1nn(-c2ccc(C(=O)NC(C)C)cc2)c2c1C(=O)CC(C)(C)C2,775
18,Brc1cncc(-c2nc(-c3ccc4c(c3)ncn4CCN3CCCC3)no2)c1,631
19,CC(C)c1noc(-c2cccnc2N2CCCN(Cc3ccc(F)cc3)CC2)n1,712
20,O=C(Nc1ccc(F)cc1)N1CCC(n2cnc3c(Cl)cccc3c2=O)CC1,805
21,Cc1ccc(NC(=O)C(=O)NC(C)c2ccccc2)cc1C (centres undefined),1010
22,CN1C(=O)Cc2ccccc2C1C(=O)NCc1cccc(F)c1 (centres undefined),729
23,CN(C)CCn1nnc2cc(-c3noc(Cc4ccc(F)cc4)n3)ccc21,714
24,O=C(Cn1nc(C(=O)N2CCCC2)c2ccccc21)NCc1cccnc1,580
25,CCn1nccc1-c1cccc(-c2noc(C3CC(=O)N(c4ccc(C)cc4)C3)n2)c1 (centres undefined),1010
26,COC(=O)C1CCN(S(=O)(=O)c2cc3c4c(c2)CCC(=O)N4CCC3)CC1,724

row,Compound,RP-LC retention time [s]
1,O=C([C@H]1C[C@@H](F)CN1S(=O)(=O)Cc1ccc(Cl)cc1)N1CCOCC1,747
2,O=C(Cc1csc(Nc2ncccn2)n1)NCC(F)(F)F,626
3,Cc1ccc(S(=O)(=O)N2CCc3c(c(-c4nnc(-c5ccc(F)cc5)o4)nn3C)C2)cc1C,851
4,Cc1ccc(-c2noc(Cc3nnc(-c4ccccc4)o3)n2)cc1C,1100
5,Cc1ccc(NC(=O)C2CCN(S(=O)(=O)c3c(C)[nH]c(C)c3C(=O)N3CCCC3)CC2)cc1,723
6,COc1ccc(CNC(=O)CN2C(=O)CSc3cccn3-c3ccccc32)c(OC)c1,868
7,Cc1ccc(-n2ncc3c(=O)n(Cc4nc(-c5ccc(Br)cc5)no4)cnc32)cc1,1200
8,COc1ccc(NC(=O)Nc2cc(-c3cn4cccnc4n3)ccc2C)cc1,590
9,COc1cc(NC(=O)NC2COc3ccccc3C2)cc(OC)c1OC (centres undefined),773
10,Cc1ccccc1CN1C[C@@H]2C(=O)N(CCc3ccccc3)C(=O)[C@@H]2C1,829
11,CCCS(=O)(=O)N1CCc2c(c(-c3nncn3Cc3ccccc3)nn2C)C1,769
12,O=C(CCC1CCCCC1)Nc1nc(-c2ccc3c(c2)NC(=O)CO3)cs1,1020
13,CCOC(=O)c1[nH]c(C)c(CCC(=O)N2CCC(C(=O)NCc3cccnc3)CC2)c1C,597
14,Cc1ccc(-c2cc3c(=O)n(Cc4noc(CN5CCN(C)CC5)n4)ccn3n2)cc1,659
15,CC(C)n1c2ccccc2c2nnc(SCC(=O)Nc3nc(-c4ccccc4)cs3)nc21,1040
16,Cc1cccc(NC(=O)C2CCN(S(=O)(=O)c3ccc4c(c3)sc(=O)n4C(C)C)CC2)n1,815
17,CSc1ccccc1CN1CCC(CNC(=O)c2ccco2)CC1,548
18,O=C(NCCC1CCN(C(=O)Nc2ccc(F)cc2F)CC1)C1CC1,691
19,COc1ccc(NC(=O)NCC(c2cccnc2)c2c[nH]c3ccccc23)c(OC)c1 (centres undefined),650
20,Cc1ccccc1NS(=O)(=O)c1cccc(-c2nc(-c3ccccc3)no2)c1,1160
21,CCn1ccc2c(cc(C(=O)Nc3cc(C)c(Cl)cc3OC)n2C)c1=O,933
22,CCOc1ccccc1NC(=O)Cn1nc2cc(C)nc(-c3ccccc3)n2c1=O,838
23,Cc1cc(NC(=O)C2CCN(C(=O)CSc3nnnn3C)CC2)no1,607
24,CSc1cnc(Nc2nc(-c3ccc(Br)cc3)cs2)nc1,1190
25,Cc1ncsc1C1N(C2CCN(Cc3cn(C)c4ccccc34)CC2)C(=O)C12CCCC2 (centres undefined),693
